Reference: ChEMBL document CHEMBL4261593, “Synthesis and antibacterial activity of novel 3-O-arylalkylcarbamoyl-3-O-descladinosyl-9-O-(2-chlorobenzyl)oxime clarithromycin derivatives” (2018)
In brackets after ≈: the same amount, converted by molar mass.

How the values were obtained:
Assay type in all cases: functional
Streptococcus pyogenes [1] = experiment: Antibacterial activity against erythromycin-susceptible Streptococcus pyogenes 1 after 24 hrs by broth dilution assay; conditions: Streptococcus pyogenes, 1, 24 h
Staphylococcus aureus [2] = experiment: Antibacterial activity against erythromycin-susceptible Staphylococcus aureus ATCC 25923 after 24 hrs by broth dilution assay; conditions: ATCC 25923, 24 h
Escherichia coli = experiment: Antibacterial activity against penicillin-susceptible Escherichia coli ATCC 25922 after 24 hrs by broth dilution assay; conditions: ATCC 25922, 24 h
Pseudomonas aeruginosa = experiment: Antibacterial activity against penicillin-susceptible Pseudomonas aeruginosa ATCC 27853 after 24 hrs by broth dilution assay; conditions: ATCC 27853, 24 h
Bacillus subtilis = experiment: Antibacterial activity against penicillin-susceptible Bacillus subtilis ATCC 9372 after 24 hrs by broth dilution assay; conditions: ATCC 9372, 24 h
Staphylococcus aureus [3] = experiment: Antibacterial activity against […] Staphylococcus aureus ATCC 29213 after 24 hrs by broth dilution assay; conditions: ATCC 29213, 24 h
Staphylococcus aureus [4] = experiment: Antibacterial activity against penicillin-resistant Staphylococcus aureus ATCC 31007 after 24 hrs by broth dilution assay; conditions: ATCC 31007, 24 h
Streptococcus pyogenes [5] = experiment: Antibacterial activity against erythromycin-resistant Streptococcus pyogenes 2 after 24 hrs by broth dilution assay; conditions: Streptococcus pyogenes, 2, 24 h
Streptococcus pneumoniae [6] = experiment: Antibacterial activity against erythromycin-resistant Streptococcus pneumoniae A22072 expressing mefA gene after 24 hrs by broth dilution assay; conditions: A22072, 24 h
Streptococcus pneumoniae [7] = experiment: Antibacterial activity against erythromycin-resistant Streptococcus pneumoniae B1 expressing ermB gene after 24 hrs by broth dilution assay; conditions: B1, 24 h
Streptococcus pneumoniae [8] = experiment: Antibacterial activity against erythromycin-resistant Streptococcus pneumoniae AB11 expressing ermB and mefA genes after 24 hrs by broth dilution assay; conditions: AB11, 24 h
Staphylococcus aureus [9] = experiment: Potency index, ratio of CAM MIC to compound MIC for antibacterial activity against penicillin-resistant Staphylococcus aureus ATCC 31007
Staphylococcus aureus [10] = experiment: Potency index, ratio of AZM MIC to compound MIC for antibacterial activity against penicillin-resistant Staphylococcus aureus ATCC 31007
Streptococcus pyogenes [11] = experiment: Potency index, ratio of CAM MIC to compound MIC for antibacterial activity against erythromycin-resistant Streptococcus pyogenes 2
Streptococcus pyogenes [12] = experiment: Potency index, ratio of AZM MIC to compound MIC for antibacterial activity against erythromycin-resistant Streptococcus pyogenes 2

Row | Structure (SMILES) | MIC (Streptococcus pyogenes [1]) [µg/mL] | MIC (Staphylococcus aureus [2]) [µg/mL] | MIC (Escherichia coli) [µg/mL] | MIC (Pseudomonas aeruginosa) [µg/mL] | MIC (Bacillus subtilis) [µg/mL] | MIC (Staphylococcus aureus [3]) [µg/mL] | MIC (Staphylococcus aureus [4]) [µg/mL] | MIC (Streptococcus pyogenes [5]) [µg/mL] | MIC (Streptococcus pneumoniae [6]) [µg/mL] | MIC (Streptococcus pneumoniae [7]) [µg/mL] | MIC (Streptococcus pneumoniae [8]) [µg/mL] | Ratio (Staphylococcus aureus [9]) | Ratio (Staphylococcus aureus [10]) | Ratio (Streptococcus pyogenes [11]) | Ratio (Streptococcus pyogenes [12])
1 | CC[C@H]1OC(=O)[C@H](C)[C@@H](OC(=O)NCc2ccccc2)[C@H](C)[C@@H](O[C@@H]2O[C@H](C)C[C@H](N(C)C)[C@H]2O)[C@](C)(OC)C[C@@H](C)/C(=N/OCc2ccccc2Cl)[C@H](C)[C@@H](O)[C@]1(C)O | 2 (≈ 2.32 µM) | 8 (≈ 9.28 µM) | 128 (≈ 148 µM) | 128 (≈ 148 µM) | 2 (≈ 2.32 µM) | 128 (≈ 148 µM) | 4 (≈ 4.64 µM) | 16 (≈ 18.6 µM) | 0.5 (≈ 0.58 µM) | 128 (≈ 148 µM) | 128 (≈ 148 µM) | 64 | 64 | – | –
2 | CC[C@H]1OC(=O)[C@H](C)[C@@H](OC(=O)NCCc2ccc(F)cc2)[C@H](C)[C@@H](O[C@@H]2O[C@H](C)C[C@H](N(C)C)[C@H]2O)[C@](C)(OC)C[C@@H](C)/C(=N/OCc2ccccc2Cl)[C@H](C)[C@@H](O)[C@]1(C)O | 2 (≈ 2.24 µM) | 4 (≈ 4.47 µM) | 128 (≈ 143 µM) | 128 (≈ 143 µM) | 2 (≈ 2.24 µM) | 128 (≈ 143 µM) | 4 (≈ 4.47 µM) | 8 (≈ 8.94 µM) | 1 (≈ 1.12 µM) | 128 (≈ 143 µM) | 128 (≈ 143 µM) | – | – | – | –
3 | CC[C@H]1OC(=O)[C@H](C)[C@@H](OC(=O)NCCc2ccc(OC)c(OC)c2)[C@H](C)[C@@H](O[C@@H]2O[C@H](C)C[C@H](N(C)C)[C@H]2O)[C@](C)(OC)C[C@@H](C)/C(=N/OCc2ccccc2Cl)[C@H](C)[C@@H](O)[C@]1(C)O | 1 (≈ 1.07 µM) | 8 (≈ 8.54 µM) | 128 (≈ 137 µM) | 128 (≈ 137 µM) | 4 (≈ 4.27 µM) | 128 (≈ 137 µM) | 8 (≈ 8.54 µM) | 16 (≈ 17.1 µM) | 1 (≈ 1.07 µM) | 128 (≈ 137 µM) | 128 (≈ 137 µM) | – | – | – | –
4 | CC[C@H]1OC(=O)[C@H](C)[C@@H](OC(=O)NCCc2ccccc2Cl)[C@H](C)[C@@H](O[C@@H]2O[C@H](C)C[C@H](N(C)C)[C@H]2O)[C@](C)(OC)C[C@@H](C)/C(=N/OCc2ccccc2Cl)[C@H](C)[C@@H](O)[C@]1(C)O | 2 (≈ 2.2 µM) | 8 (≈ 8.78 µM) | 128 (≈ 141 µM) | 128 (≈ 141 µM) | 2 (≈ 2.2 µM) | 128 (≈ 141 µM) | 8 (≈ 8.78 µM) | 16 (≈ 17.6 µM) | 1 (≈ 1.1 µM) | 128 (≈ 141 µM) | 128 (≈ 141 µM) | – | – | – | –
5 | CC[C@H]1OC(=O)[C@H](C)[C@@H](OC(=O)NCCc2cccc(OC)c2)[C@H](C)[C@@H](O[C@@H]2O[C@H](C)C[C@H](N(C)C)[C@H]2O)[C@](C)(OC)C[C@@H](C)/C(=N/OCc2ccccc2Cl)[C@H](C)[C@@H](O)[C@]1(C)O | 2 (≈ 2.21 µM) | 8 (≈ 8.82 µM) | 128 (≈ 141 µM) | 128 (≈ 141 µM) | 4 (≈ 4.41 µM) | 128 (≈ 141 µM) | 4 (≈ 4.41 µM) | 8 (≈ 8.82 µM) | 1 (≈ 1.1 µM) | 128 (≈ 141 µM) | 128 (≈ 141 µM) | – | – | – | –
6 | CC[C@H]1OC(=O)[C@H](C)[C@@H](O)[C@H](C)[C@@H](O[C@@H]2O[C@H](C)C[C@H](N(C)C)[C@H]2O)[C@](C)(OC)C[C@@H](C)/C(=N/OCc2ccccc2Cl)[C@H](C)[C@@H](O)[C@]1(C)O | 4 (≈ 5.48 µM) | 64 (≈ 87.7 µM) | 128 (≈ 175 µM) | 128 (≈ 175 µM) | 16 (≈ 21.9 µM) | 128 (≈ 175 µM) | 32 (≈ 43.9 µM) | 128 (≈ 175 µM) | 4 (≈ 5.48 µM) | 128 (≈ 175 µM) | 128 (≈ 175 µM) | – | – | – | –
7 | CCCCNC(=O)O[C@H]1[C@H](C)[C@@H](O[C@@H]2O[C@H](C)C[C@H](N(C)C)[C@H]2O)[C@](C)(OC)C[C@@H](C)/C(=N/OCc2ccccc2Cl)[C@H](C)[C@@H](O)[C@](C)(O)[C@@H](CC)OC(=O)[C@@H]1C | 1 (≈ 1.21 µM) | 4 (≈ 4.83 µM) | 128 (≈ 154 µM) | 128 (≈ 154 µM) | 2 (≈ 2.41 µM) | 128 (≈ 154 µM) | 8 (≈ 9.66 µM) | 8 (≈ 9.66 µM) | 0.5 (≈ 0.604 µM) | 128 (≈ 154 µM) | 128 (≈ 154 µM) | – | – | 32 | 32
8 | CC[C@H]1OC(=O)[C@H](C)[C@@H](OC(=O)NCc2ccc(N)cc2)[C@H](C)[C@@H](O[C@@H]2O[C@H](C)C[C@H](N(C)C)[C@H]2O)[C@](C)(OC)C[C@@H](C)/C(=N/OCc2ccccc2Cl)[C@H](C)[C@@H](O)[C@]1(C)O | 1 (≈ 1.14 µM) | 16 (≈ 18.2 µM) | 128 (≈ 146 µM) | 128 (≈ 146 µM) | 4 (≈ 4.56 µM) | 128 (≈ 146 µM) | 16 (≈ 18.2 µM) | 16 (≈ 18.2 µM) | 0.5 (≈ 0.57 µM) | 128 (≈ 146 µM) | 128 (≈ 146 µM) | – | – | – | –
9 | CC[C@H]1OC(=O)[C@H](C)[C@@H](OC(=O)NCc2ccc(Cl)cc2)[C@H](C)[C@@H](O[C@@H]2O[C@H](C)C[C@H](N(C)C)[C@H]2O)[C@](C)(OC)C[C@@H](C)/C(=N/OCc2ccccc2Cl)[C@H](C)[C@@H](O)[C@]1(C)O | 2 (≈ 2.23 µM) | 8 (≈ 8.92 µM) | 128 (≈ 143 µM) | 128 (≈ 143 µM) | 2 (≈ 2.23 µM) | 128 (≈ 143 µM) | 4 (≈ 4.46 µM) | 8 (≈ 8.92 µM) | 0.5 (≈ 0.557 µM) | 128 (≈ 143 µM) | 128 (≈ 143 µM) | 64 | 64 | 32 | 32
10 | CC[C@H]1OC(=O)[C@H](C)[C@@H](OC(=O)NCCc2ccc(O)cc2)[C@H](C)[C@@H](O[C@@H]2O[C@H](C)C[C@H](N(C)C)[C@H]2O)[C@](C)(OC)C[C@@H](C)/C(=N/OCc2ccccc2Cl)[C@H](C)[C@@H](O)[C@]1(C)O | 0.5 (≈ 0.56 µM) | 4 (≈ 4.48 µM) | 128 (≈ 143 µM) | 128 (≈ 143 µM) | 1 (≈ 1.12 µM) | 128 (≈ 143 µM) | 4 (≈ 4.48 µM) | 8 (≈ 8.96 µM) | 0.25 (≈ 0.28 µM) | 128 (≈ 143 µM) | 128 (≈ 143 µM) | – | – | 32 | 32
11 | CC[C@H]1OC(=O)[C@H](C)[C@@H](O[C@H]2C[C@@](C)(OC)[C@@H](O)[C@H](C)O2)[C@H](C)[C@@H](O[C@@H]2O[C@H](C)C[C@H](N(C)C)[C@H]2O)[C@](C)(O)C[C@@H](C)CN(C)[C@H](C)[C@@H](O)[C@]1(C)O [AZITHROMYCIN] | 0.03 (≈ 0.0401 µM) | 0.25 (≈ 0.334 µM) | 8 (≈ 10.7 µM) | 16 (≈ 21.4 µM) | 0.5 (≈ 0.668 µM) | 8 (≈ 10.7 µM) | 256 (≈ 342 µM) | 256 (≈ 342 µM) | 4 (≈ 5.34 µM) | 128 (≈ 171 µM) | 128 (≈ 171 µM) | – | – | – | –
12 | CC[C@H]1OC(=O)[C@H](C)[C@@H](O[C@H]2C[C@@](C)(OC)[C@@H](O)[C@H](C)O2)[C@H](C)[C@@H](O[C@@H]2O[C@H](C)C[C@H](N(C)C)[C@H]2O)[C@](C)(OC)C[C@@H](C)C(=O)[C@H](C)[C@@H](O)[C@]1(C)O [CLARITHROMYCIN] | 0.03 (≈ 0.0401 µM) | 0.25 (≈ 0.334 µM) | 32 (≈ 42.8 µM) | 32 (≈ 42.8 µM) | 0.25 (≈ 0.334 µM) | 64 (≈ 85.6 µM) | 256 (≈ 342 µM) | 256 (≈ 342 µM) | 2 (≈ 2.67 µM) | 128 (≈ 171 µM) | 128 (≈ 171 µM) | – | – | – | –
